Literature values, collected in patent US20100086625A1, “METHODS FOR TREATING SKIN LESIONS” (priority 2008, published 2010).

Test system: cold sores
Details: oral

## CC(=O)OCC(CCn1cnc2cnc(N)nc21)COC(C)=O [famciclovir]
1500 mg
  shortening of the herpes infection: two

## CC(C)[C@H](N)C(=O)OCCOCn1cnc2c(=O)[nH]c(N)nc21 [valacyclovir]
2 gm twice a day for one day
  shortening of a herpes infection: over one
